A word on the Km: it is the concentration of substrate that gives half-maximal velocity. For orientation: Vmax means the rate approached at saturating substrate.

Here are results for four molecules from publication PMC5675747 (The Journal of steroid biochemistry and molecular biology, 2017).

One series concerns the target T1, zfSult2st3 (Danio rerio, UniProt A0ACM8QCA3).
T1 sequence (A0ACM8QCA3 1-288): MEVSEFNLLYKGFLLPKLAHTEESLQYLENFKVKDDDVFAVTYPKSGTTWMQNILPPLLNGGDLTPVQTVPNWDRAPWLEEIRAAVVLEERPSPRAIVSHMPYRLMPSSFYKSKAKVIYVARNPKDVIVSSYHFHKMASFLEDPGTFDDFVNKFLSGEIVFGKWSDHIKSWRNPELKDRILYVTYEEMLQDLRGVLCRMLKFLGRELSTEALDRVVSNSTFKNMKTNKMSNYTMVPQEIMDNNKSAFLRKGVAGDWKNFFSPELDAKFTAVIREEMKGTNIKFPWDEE
Briefly: […]PAPS sulfation assay, TLC and scintillation counting. Type of series: biochemical. The settings on record: 14 μM PAPS, 50 mM Mops pH 7.0, 1 mM DTT, 28 °C; substrate inhibition constant.

The target of a further series is T2, zfSult2st2 (Danio rerio, UniProt A0EXC5).
T2 sequence (A0EXC5 1-287): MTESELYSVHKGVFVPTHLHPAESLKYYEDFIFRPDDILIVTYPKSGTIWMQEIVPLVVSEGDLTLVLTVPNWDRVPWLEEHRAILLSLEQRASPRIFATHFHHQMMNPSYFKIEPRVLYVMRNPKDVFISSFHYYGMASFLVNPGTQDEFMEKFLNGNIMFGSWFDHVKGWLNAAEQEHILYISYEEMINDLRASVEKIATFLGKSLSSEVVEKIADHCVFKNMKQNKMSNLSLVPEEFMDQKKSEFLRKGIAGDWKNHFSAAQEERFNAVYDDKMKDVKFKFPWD
The description is as above. The settings on record: 14 μM PAPS, 50 mM Mops pH 7.0, 1 mM DTT, 28 °C; substrate inhibition constant. The format is biochemical.

The target of the next series is T3, zfSult3st4 (Danio rerio, UniProt A0A8M1P203).
T3 sequence (A0A8M1P203 1-299): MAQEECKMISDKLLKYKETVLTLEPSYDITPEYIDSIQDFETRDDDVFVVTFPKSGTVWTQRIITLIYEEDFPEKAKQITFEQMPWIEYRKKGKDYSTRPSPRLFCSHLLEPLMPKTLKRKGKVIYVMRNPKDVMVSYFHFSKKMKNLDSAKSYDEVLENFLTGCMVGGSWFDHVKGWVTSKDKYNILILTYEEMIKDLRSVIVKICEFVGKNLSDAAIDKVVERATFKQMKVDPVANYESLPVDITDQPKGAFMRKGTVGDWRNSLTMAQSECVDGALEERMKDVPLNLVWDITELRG
The description is as above. The format is biochemical. The settings on record: 14 μM PAPS, 50 mM Mops pH 7.0, 1 mM DTT, 28 °C; substrate inhibition constant.

The target in another series is T4, hSULT2A1 (Homo sapiens, UniProt Q06520).
T4 sequence (Q06520 1-285): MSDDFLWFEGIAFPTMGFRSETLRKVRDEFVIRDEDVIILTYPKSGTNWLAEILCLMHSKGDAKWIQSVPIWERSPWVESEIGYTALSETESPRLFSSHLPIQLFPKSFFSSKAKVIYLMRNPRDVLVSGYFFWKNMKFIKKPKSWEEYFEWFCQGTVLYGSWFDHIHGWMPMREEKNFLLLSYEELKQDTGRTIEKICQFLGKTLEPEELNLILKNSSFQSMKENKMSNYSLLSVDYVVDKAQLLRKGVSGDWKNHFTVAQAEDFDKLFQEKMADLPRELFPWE
The series is described as above. Type of series: biochemical. The following applies: 14 μM PAPS, 50 mM Mops pH 7.0, 1 mM DTT, 37 °C; substrate inhibition constant.

Substrate in series [1]: C[C@H](CCCC(CO)CO)[C@H]1CC[C@H]2[C@@H]3[C@H](O)C[C@@H]4C[C@H](O)CC[C@]4(C)[C@H]3C[C@H](O)[C@]12C
Briefly: purified protein. The format is biochemical, Homo sapiens. The settings on record: 14 μM PAPS, 50 mM Mops pH 7.0, 1 mM DTT, 37 °C.

Substrate in series [2]: C[C@H](CCCC(CO)CO)[C@H]1CC[C@H]2[C@@H]3[C@H](O)C[C@@H]4C[C@H](O)CC[C@]4(C)[C@H]3C[C@H](O)[C@]12C
The experiment in a line: purified protein. The format is biochemical, Danio rerio. The settings on record: 14 μM PAPS, 50 mM Mops pH 7.0, 1 mM DTT, 28 °C.

For the molecule `C[C@H](CCCC(CO)CO)[C@H]1CC[C@H]2[C@@H]3[C@H](O)C[C@@H]4C[C@H](O)CC[C@]4(C)[C@H]3C[C@H](O)[C@]12C` [5β-cyprinol], the “Ki” value amounted to 39.78 ± 6.70 µM at zfSult2st3 and 58.15 ± 5.74 µM on zfSult2st2.
On to `C[C@H](CCCC(CO)CO)[C@H]1CC[C@H]2[C@@H]3[C@H](O)C[C@H]4C[C@H](O)CC[C@]4(C)[C@H]3C[C@H](O)[C@]12C` [5α-cyprinol, 3α,7α,12α,26,27-pentahydroxy-5α-cholestane], for which the “Ki” value at zfSult2st3 was 373.9 ± 38.0 µM; on zfSult3st4, 164.9 ± 22.2 µM; at hSULT2A1 it was 210.8 ± 19.9 µM; at zfSult2st2, 27.43 ± 11.16 µM.

B1: hSULT2A1 (Homo sapiens) (protein)
chain: MSDDFLWFEGIAFPTMGFRSETLRKVRDEFVIRDEDVIILTYPKSGTNWLAEILCLMHSKGDAKWIQSVPIWERSPWVESEIGYTALSETESPRLFSSHLPIQLFPKSFFSSKAKVIYLMRNPRDVLVSGYFFWKNMKFIKKPKSWEEYFEWFCQGTVLYGSWFDHIHGWMPMREEKNFLLLSYEELKQDTGRTIEKICQFLGKTLEPEELNLILKNSSFQSMKENKMSNYSLLSVDYVVDKAQLLRKGVSGDWKNHFTVAQAEDFDKLFQEKMADLPRELFPWE
On to B1, for which, in the series “purified protein [1]”, the Km turned out to be 221.3 ± 23.1 µM and the Vmax stood at 0.00224 µmol/min/mg.

B2: zfSult3st4 (Danio rerio) (protein)
chain: MAQEECKMISDKLLKYKETVLTLEPSYDITPEYIDSIQDFETRDDDVFVVTFPKSGTVWTQRIITLIYEEDFPEKAKQITFEQMPWIEYRKKGKDYSTRPSPRLFCSHLLEPLMPKTLKRKGKVIYVMRNPKDVMVSYFHFSKKMKNLDSAKSYDEVLENFLTGCMVGGSWFDHVKGWVTSKDKYNILILTYEEMIKDLRSVIVKICEFVGKNLSDAAIDKVVERATFKQMKVDPVANYESLPVDITDQPKGAFMRKGTVGDWRNSLTMAQSECVDGALEERMKDVPLNLVWDITELRG
For B2, in the series “purified protein [2]”, the Km was found to be 98.9 ± 2.89 µM and the maximal velocity (Vmax) stood at 0.00397 µmol/min/mg.
